Assay results taken from patent US20090312280A1.

Assays:
in vivo = conditions: mouse
Bmx = Bmx (Homo sapiens, UniProt P51813); test: biochemical kinase screening assay
[1] = tested on: wild type p53 HCT116 cells; test: cell survival assay, transiently transfected p53 wild type; assay type: cell-based, human; conditions: Compound 1 + gemcitabine compared with gemcitabine alone
Procedure: (§1) The cytotoxic effect induced by the combination treatment in HUVEC cells is negligible compared with the cytotoxicity induced by the same treatment in tumor cells. […] A cell survival assay was also performed in HTC116 cells (human colon carcinoma) that were transiently transfected with a plasmid containing either p53 wild type or mutant.

Blk(m) = Blk(m) (Mus musculus, UniProt P16277); test: biochemical kinase screening assay
Fgr = Fgr (Homo sapiens, UniProt P09769); test: biochemical kinase screening assay
P70S6K = P70S6K (Homo sapiens, UniProt P23443); test: biochemical kinase screening assay
Chain of P70S6K (P23443 whole entry): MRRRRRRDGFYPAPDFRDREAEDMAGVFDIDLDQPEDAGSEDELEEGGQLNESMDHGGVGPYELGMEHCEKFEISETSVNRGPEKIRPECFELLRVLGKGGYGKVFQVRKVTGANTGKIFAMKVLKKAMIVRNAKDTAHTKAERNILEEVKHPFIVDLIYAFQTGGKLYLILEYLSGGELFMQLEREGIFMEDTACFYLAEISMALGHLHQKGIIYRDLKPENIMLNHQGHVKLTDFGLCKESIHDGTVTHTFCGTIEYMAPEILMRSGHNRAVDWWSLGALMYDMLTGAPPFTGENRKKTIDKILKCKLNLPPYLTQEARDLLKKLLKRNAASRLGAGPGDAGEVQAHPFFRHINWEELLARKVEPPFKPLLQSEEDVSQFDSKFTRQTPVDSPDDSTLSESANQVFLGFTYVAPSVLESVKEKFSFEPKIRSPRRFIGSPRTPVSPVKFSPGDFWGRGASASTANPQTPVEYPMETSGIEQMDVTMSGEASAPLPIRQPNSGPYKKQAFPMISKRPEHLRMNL

PAR-1Ba = PAR-1Ba (Homo sapiens, UniProt Q7KZI7); test: biochemical kinase screening assay
Chain of PAR-1Ba (Q7KZI7 1-725 isoform Q7KZI7-4): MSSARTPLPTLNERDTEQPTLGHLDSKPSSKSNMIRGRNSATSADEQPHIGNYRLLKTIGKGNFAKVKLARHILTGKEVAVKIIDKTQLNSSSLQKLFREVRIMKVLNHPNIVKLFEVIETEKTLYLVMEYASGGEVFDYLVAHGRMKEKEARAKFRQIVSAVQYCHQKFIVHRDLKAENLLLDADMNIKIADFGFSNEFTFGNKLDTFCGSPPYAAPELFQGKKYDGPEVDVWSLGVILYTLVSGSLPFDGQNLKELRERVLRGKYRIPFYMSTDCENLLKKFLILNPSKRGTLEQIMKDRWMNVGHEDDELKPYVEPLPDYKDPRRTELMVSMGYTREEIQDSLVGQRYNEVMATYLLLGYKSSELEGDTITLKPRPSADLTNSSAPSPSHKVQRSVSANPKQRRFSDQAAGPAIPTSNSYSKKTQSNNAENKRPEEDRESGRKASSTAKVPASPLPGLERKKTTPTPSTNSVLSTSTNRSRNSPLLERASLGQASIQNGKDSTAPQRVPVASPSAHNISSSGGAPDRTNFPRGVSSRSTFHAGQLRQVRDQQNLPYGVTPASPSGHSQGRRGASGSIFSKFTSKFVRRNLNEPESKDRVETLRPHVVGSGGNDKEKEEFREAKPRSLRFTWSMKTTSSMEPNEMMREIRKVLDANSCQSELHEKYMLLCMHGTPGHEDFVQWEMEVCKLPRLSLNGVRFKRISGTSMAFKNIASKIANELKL

Chk2 [2] = biological target: T1, Chk2 (Homo sapiens, UniProt O96017); test: biochemical kinase screening assay; conditions: read-out: IC50 (nM), given as Ki
T1 sequence (O96017 whole entry): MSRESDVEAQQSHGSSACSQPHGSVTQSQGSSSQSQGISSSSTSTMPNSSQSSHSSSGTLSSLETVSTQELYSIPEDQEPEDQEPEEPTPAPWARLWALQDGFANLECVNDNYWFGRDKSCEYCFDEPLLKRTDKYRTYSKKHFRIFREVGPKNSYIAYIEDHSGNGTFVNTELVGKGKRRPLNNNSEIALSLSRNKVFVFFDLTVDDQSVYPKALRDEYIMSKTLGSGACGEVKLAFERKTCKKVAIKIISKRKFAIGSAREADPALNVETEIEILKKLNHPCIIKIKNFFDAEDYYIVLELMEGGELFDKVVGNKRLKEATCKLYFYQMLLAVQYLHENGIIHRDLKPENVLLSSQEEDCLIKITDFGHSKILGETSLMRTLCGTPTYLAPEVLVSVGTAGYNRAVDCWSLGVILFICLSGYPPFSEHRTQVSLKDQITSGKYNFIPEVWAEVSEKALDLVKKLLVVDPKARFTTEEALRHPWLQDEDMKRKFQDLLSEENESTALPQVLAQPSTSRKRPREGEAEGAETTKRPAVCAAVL

HUVEC cells = test: cell survival assay in normal cells; assay type: cell-based
Procedure: as §1

[3] = tested on: G2 checkpoint induced by camptothecin (Histone H3 phosphorylation on Ser10); test: Histone H3 phosphorylation assay (G2 checkpoint abrogation); assay type: cell-based; conditions: read-out: EC50, abrogation of G2 checkpoint (increase in Histone H3 phosphorylation on Ser10)
[4] = maximum tolerated dose by mean body weight loss; conditions: in vivo
[5] = tested on: p53-defective human cancer cell lines; test: cell survival / MTT assays, cell line not named; assay type: cell-based
Axl = Axl (Homo sapiens, UniProt P30530); test: biochemical kinase screening assay
MDA-MB-231 (Breast) = test: cell survival / MTT combination cytotoxicity; assay type: cell-based, human; conditions: Homo sapiens
[6] = tested on: gemcitabine induced S-Phase arrest; test: flow cytometry cell cycle / apoptosis analysis; assay type: cell-based
TrkA = TrkA (Homo sapiens, UniProt P04629); test: biochemical kinase screening assay
Yes = Yes (Homo sapiens, UniProt P07947); test: biochemical kinase screening assay
Chain of Yes (P07947 whole entry): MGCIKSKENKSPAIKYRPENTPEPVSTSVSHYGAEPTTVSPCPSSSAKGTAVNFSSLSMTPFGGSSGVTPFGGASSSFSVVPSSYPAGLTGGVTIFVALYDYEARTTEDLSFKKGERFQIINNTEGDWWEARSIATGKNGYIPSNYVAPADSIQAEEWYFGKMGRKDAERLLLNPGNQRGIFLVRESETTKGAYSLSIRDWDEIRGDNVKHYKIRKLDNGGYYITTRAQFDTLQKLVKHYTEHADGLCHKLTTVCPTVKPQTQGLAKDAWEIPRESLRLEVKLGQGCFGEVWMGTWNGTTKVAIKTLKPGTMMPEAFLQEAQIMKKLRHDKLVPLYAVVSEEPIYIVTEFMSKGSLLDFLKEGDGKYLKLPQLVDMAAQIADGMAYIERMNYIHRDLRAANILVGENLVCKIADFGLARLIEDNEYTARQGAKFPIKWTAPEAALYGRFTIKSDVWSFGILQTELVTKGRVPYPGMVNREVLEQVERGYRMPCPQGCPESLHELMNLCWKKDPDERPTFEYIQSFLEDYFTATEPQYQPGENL

PC-3 (Prostate) = test: cell survival / MTT combination cytotoxicity; assay type: cell-based, human; conditions: Homo sapiens
Rsk2 = Rsk2 (Homo sapiens, UniProt P51812); test: biochemical kinase screening assay
Chain of Rsk2 (P51812 whole entry): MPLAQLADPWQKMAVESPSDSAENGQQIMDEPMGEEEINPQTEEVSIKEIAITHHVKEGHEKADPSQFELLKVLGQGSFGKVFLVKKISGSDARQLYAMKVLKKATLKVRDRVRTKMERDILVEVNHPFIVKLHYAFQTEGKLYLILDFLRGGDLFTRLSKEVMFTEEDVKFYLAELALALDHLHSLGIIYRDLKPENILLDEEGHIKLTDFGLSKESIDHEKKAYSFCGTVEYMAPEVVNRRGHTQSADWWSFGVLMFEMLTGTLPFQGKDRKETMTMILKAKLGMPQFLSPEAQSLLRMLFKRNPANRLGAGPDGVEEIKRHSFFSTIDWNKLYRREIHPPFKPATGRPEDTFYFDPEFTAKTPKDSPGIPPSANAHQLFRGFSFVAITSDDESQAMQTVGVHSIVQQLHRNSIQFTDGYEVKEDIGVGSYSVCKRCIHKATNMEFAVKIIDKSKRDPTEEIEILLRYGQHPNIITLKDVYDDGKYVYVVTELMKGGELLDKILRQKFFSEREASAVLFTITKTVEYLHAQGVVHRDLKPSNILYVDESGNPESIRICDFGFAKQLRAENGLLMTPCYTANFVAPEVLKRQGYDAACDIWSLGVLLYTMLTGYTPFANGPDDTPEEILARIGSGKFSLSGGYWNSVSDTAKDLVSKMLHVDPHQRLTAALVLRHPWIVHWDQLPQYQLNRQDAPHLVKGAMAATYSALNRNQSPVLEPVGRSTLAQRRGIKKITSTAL

Flt3 = Flt3 (Homo sapiens, UniProt P36888); test: biochemical kinase screening assay
cSRC = cSRC (Homo sapiens, UniProt P12931); test: biochemical kinase screening assay
Chain of cSRC (P12931 whole entry): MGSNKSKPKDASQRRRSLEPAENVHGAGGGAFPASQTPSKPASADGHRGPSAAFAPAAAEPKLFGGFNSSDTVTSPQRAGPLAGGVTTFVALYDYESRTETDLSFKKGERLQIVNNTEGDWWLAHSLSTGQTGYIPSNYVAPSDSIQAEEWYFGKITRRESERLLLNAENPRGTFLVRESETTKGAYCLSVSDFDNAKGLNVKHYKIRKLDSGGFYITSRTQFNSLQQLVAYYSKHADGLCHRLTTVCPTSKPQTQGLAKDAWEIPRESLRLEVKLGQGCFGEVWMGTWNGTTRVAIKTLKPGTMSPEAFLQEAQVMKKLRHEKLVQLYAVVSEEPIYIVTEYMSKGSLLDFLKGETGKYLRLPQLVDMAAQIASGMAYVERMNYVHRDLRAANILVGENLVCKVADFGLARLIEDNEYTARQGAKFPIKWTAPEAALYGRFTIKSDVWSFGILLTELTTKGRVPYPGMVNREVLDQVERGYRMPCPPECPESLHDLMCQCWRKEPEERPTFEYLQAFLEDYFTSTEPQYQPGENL

Rsk1 = Rsk1 (Homo sapiens, UniProt Q15418); test: biochemical kinase screening assay
Chain of Rsk1 (Q15418 whole entry): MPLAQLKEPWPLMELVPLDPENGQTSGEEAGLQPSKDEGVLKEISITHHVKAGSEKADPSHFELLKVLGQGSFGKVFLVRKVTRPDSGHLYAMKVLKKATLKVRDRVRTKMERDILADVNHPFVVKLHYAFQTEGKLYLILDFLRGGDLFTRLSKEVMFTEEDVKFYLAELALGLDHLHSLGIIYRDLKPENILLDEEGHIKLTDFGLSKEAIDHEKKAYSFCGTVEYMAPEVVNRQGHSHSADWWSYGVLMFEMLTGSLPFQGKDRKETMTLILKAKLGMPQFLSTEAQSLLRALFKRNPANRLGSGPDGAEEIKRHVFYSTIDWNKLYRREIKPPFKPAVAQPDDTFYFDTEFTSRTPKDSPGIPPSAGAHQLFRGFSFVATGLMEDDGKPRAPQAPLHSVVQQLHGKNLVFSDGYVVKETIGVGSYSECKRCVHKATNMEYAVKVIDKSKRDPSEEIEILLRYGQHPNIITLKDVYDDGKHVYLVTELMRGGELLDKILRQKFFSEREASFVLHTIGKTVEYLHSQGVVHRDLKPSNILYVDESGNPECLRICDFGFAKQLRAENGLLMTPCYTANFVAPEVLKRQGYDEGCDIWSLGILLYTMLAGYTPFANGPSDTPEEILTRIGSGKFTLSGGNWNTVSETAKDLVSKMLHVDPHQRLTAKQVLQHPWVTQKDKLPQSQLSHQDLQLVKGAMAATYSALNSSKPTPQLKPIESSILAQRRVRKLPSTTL

PDGFRa = PDGFRa (Homo sapiens, UniProt P16234); test: biochemical kinase screening assay
Chk2 [7] = biological target: T1, Chk2; test: cell-based or ex vivo assays of CHK2 activity

Chain of Bmx (P51813 whole entry): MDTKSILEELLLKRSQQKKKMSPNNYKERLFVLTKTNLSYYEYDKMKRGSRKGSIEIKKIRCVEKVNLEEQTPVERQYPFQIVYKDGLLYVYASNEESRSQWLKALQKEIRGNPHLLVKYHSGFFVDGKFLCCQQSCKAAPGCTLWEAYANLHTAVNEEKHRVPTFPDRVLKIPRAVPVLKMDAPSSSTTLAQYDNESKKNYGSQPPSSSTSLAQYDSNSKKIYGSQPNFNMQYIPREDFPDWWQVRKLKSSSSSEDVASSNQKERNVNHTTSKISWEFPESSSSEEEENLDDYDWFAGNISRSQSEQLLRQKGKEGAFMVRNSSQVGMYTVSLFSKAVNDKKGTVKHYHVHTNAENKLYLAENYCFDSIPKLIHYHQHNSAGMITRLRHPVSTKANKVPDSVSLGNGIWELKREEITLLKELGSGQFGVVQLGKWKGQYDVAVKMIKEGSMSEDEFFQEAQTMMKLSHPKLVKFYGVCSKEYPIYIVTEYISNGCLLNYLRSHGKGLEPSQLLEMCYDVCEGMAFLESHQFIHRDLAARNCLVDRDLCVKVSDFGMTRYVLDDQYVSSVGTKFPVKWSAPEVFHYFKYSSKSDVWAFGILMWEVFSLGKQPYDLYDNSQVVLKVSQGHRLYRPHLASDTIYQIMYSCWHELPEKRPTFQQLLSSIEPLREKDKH

## Cn1cc(-c2[nH]c3cc(NC(=O)[C@H](N)C4CCCCC4)cc4c3c2C=NNC4=O)cn1 [Compound 1]
In vivo
  MTD: 60 mg/kg
Bmx
  IC50: 0.233 µM
[1]
  cell growth inhibition: 15%
Blk(m)
  IC50: 0.365 µM
Fgr
  IC50: 0.153 µM
P70S6K
  IC50: 0.061 µM
PAR-1Ba
  IC50: 0.35 µM
Chk2 [2]
  Ki: 47 nM
HUVEC cells; Compound 1 540 nM (12×EC50) + camptothecin compared with camptothecin alone
  increase in cell kill: 21.7
HUVEC cells; Compound 1 540 nM (12×EC50) + gemcitabine compared with gemcitabine alone
  increase in cell kill: 31.2%
[3]
  EC50: 0.045 µM
[4]
  MTD: 40 mg/kg
[5]; Compound 1 alone compared with control (untreated) cells
  effect on cell viability: no significant effect on cell viability
[5]; combination with gemcitabine compared with gemcitabine alone
  potentiation of gemcitabine cytotoxicity: 89%
Axl
  IC50: 0.117 µM
MDA-MB-231 (Breast)
  IC50: 1.4 µM
[6]; combination with gemcitabine
  S-Phase arrest by flow cytometry: abrogation of gemcitabine induced S-Phase arrest
[6]; gemcitabine + Compound 1 compared with gemcitabine alone
  apoptotic cells by flow cytometry: significant increase in apoptotic cells
[6]; in the absence of DNA damage
  effect on cell cycle: no effect on cell cycle
TrkA
  IC50: 1.27 µM
Yes
  IC50: 0.014 µM
PC-3 (Prostate)
  IC50: 1.6 µM
Rsk2
  IC50: 0.621 µM
Flt3
  IC50: 0.025 µM
cSRC
  IC50: 0.442 µM
Rsk1
  IC50: 0.098 µM
PDGFRa
  IC50: 2.81 µM
Chk2 [7]
  modulation of CHK2 activity: no evidence that CHK2 activity is modulated
